This is an account of results in patent publication US9481676B2, “Azepino[4,5-B]indoles and methods of use” (Medivation Technologies, Inc., priority 2008, dated 2016).

The target in experiment [1] is T1, human recombinant adrenergic α2B receptor (Homo sapiens, UniProt P18089).
T1 construct: expressed in transfected cells; host or cells: CHO-K1 cells
T1 sequence (P18089 1-450): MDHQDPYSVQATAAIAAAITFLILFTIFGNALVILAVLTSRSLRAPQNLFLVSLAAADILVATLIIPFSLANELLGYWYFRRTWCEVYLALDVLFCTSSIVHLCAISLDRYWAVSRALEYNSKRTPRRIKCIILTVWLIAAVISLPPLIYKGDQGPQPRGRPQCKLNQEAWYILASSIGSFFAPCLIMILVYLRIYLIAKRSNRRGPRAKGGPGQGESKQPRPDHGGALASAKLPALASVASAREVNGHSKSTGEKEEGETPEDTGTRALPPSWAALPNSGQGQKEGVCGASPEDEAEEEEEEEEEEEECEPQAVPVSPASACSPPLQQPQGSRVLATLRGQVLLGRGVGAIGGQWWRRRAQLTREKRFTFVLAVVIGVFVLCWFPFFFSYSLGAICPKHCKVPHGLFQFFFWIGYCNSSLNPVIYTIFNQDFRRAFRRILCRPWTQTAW
Put plainly: Adrenergic alpha2B radioligand binding ([3H]Rauwolscine). Conditions: compound at 1 μM; read-out: Adrenergic (1 μM) α2B, percent inhibition of specific binding. In a few lines: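 CHO-K1-expressed receptor in Tris-HCl pH 7.4 with MgCl2, EDTA, BSA, incubated 60 min at 25° C with 2.5 nM [3H]Rauwolscine; 10 μM prazosin defines non-specific binding.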

Experiment [2] deals with T2, human recombinant adrenergic α1D receptor (Homo sapiens, UniProt P25100).
T2 construct: expressed in transfected cells; host or cells: HEK-293 cells
T2 sequence (P25100 1-572): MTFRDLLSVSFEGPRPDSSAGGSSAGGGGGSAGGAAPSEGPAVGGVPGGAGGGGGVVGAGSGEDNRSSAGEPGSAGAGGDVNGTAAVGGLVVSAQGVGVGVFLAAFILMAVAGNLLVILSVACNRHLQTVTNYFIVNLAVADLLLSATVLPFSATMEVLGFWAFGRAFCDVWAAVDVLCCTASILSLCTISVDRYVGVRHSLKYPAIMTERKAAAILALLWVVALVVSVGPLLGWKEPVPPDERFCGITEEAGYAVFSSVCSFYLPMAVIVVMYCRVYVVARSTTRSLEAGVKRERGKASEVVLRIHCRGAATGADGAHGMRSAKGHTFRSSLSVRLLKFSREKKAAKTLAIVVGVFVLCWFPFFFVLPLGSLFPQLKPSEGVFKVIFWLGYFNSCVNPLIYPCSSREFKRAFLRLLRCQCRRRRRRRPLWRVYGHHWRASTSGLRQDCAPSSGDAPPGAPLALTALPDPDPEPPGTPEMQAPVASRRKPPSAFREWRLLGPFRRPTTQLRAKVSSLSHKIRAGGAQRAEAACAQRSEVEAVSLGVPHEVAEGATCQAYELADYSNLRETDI
Nature of the experiment: Adrenergic alpha1D radioligand binding ([3H]Prozosin). Conditions: compound at 1 μM; read-out: Adrenergic (1 μM) α1D, percent inhibition of specific binding. In a few lines:
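Membranes from HEK-293 cells expressing the human receptor in 50 mM Tris-HCl pH 7.4 were incubated 60 min at 25 °C with 0.6 nM [3H]prazosin. Nonspecific binding was defined with 10 μM phentolamine, and bound ligand measured by filtration.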

Experiment [3] concerns the target T3, human recombinant serotonin (5-Hydroxytryptamine) 5-HT2C receptor (Homo sapiens, UniProt P28335).
T3 construct: expressed in transfected cells; host or cells: CHO-K1 cells
T3 sequence (P28335 33-458): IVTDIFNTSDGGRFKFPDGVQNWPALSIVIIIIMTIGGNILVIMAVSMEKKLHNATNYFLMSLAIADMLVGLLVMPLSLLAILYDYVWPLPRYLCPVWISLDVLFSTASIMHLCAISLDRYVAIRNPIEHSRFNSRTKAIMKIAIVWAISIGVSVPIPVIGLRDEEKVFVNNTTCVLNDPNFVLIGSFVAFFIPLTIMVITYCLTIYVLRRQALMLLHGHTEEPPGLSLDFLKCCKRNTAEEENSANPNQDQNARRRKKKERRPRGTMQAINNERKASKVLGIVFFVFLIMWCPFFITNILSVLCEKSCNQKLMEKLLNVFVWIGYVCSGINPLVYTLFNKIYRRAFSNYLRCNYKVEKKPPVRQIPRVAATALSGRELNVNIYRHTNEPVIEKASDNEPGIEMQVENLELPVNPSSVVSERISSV
Put plainly: Serotonin 5-HT2C radioligand binding ([3H]Mesulergine). As to conditions: compound at 1 μM; read-out: Serotonin (1 μM) 5-HT2C, percent inhibition of specific binding. In a few lines:
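Membranes from CHO-K1 cells expressing human 5-HT2C, incubated with 1 nM [3H]mesulergine for 60 min at 25 °C in 50 mM Tris-HCl pH 7.4 with ascorbic acid and pargyline.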

`CN1CCc2c(n(/C=C/c3ccc(F)c(F)c3)c3ccc(Cl)cc23)CC1` [Compound No. 236, (E)-9-chloro-6-(3,4-difluorostyryl)-3-methyl-1,2,3,4,5,6-hexahydroazepino[4,5-b]indole]: the inhibition (as a rule, the change of the read-out against control, counted positive when it falls) at 1 µM in experiment [1] worked out at 103%; in experiment [2] it was 94%; in experiment [3], 100%.

On to `Cc1ccc2c(c1)c1c(n2/C=C/c2ccccc2F)CCN(C)CC1` [Compound No. 233, (E)-6-(2-fluorostyryl)-3,9-dimethyl-1,2,3,4,5,6-hexahydroazepino[4,5-b]indole], for which the inhibition at 1 µM in experiment [1] is 100%; in experiment [2], 96%; in experiment [3] it was 100%.

Take `CN1CCc2c(n(CC(=O)N3CCCCC3)c3ccc(Cl)cc23)CC1` [Compound No. 57, 2-(9-chloro-2,3,4,5-tetrahydro-3-methylazepino[4,5-b]indol-6(1H)-yl)-1-(piperidin-1-yl)ethanone]: the inhibition at 1 µM in experiment [1] was 87%; in experiment [2] it was -7%; in experiment [3], 65%.

In the case of `Cc1ccc2c(c1)c1c(n2CCc2ccccc2F)CCN(C)CC1` [Compound No. 63, 6-(2-fluorophenethyl)-1,2,3,4,5,6-hexahydro-3,9-dimethylazepino[4,5-b]indole], the values for the inhibition at 1 µM in experiment [1], in experiment [2] and in experiment [3] were 73%, 77% and 5%, respectively.

For the compound `COc1ccc(C(O)Cn2c3c(c4cc(C)ccc42)CCN(C)CC3)c(F)c1` (stereo not drawn) [Compound No. 50, 1-(2-fluoro-4-methoxyphenyl)-2-(2,3,4,5-tetrahydro-3,9-dimethylazepino[4,5-b]indol-6(1H)-yl)ethanol], the inhibition at 1 µM in experiment [1] came out at 102%; in experiment [2], 84%; in experiment [3], 95%.

Consider `Cc1ccc2c(c1)c1c(n2CCc2ccc(C(F)(F)F)nc2)CCN(C)CC1` [Compound No. 20, 6-(2-(6-(trifluoromethyl)pyridin-3-yl)ethyl)-1,2,3,4,5,6-hexahydro-3,9-dimethylazepino[4,5-b]indole], for which the inhibition at 1 µM was 88% in experiment [1], 91% in experiment [2] and 77% in experiment [3].

In the case of `C/C(=C\n1c2c(c3cc(C)ccc31)CCN(C)CC2)c1ccc(F)cc1` [Compound No. 34, 6-((E)-2-(4-fluorophenyl)prop-1-enyl)-1,2,3,4,5,6-hexahydro-3,9-dimethylazepino[4,5-b]indole], the inhibition at 1 µM is 110% in experiment [1], 100% in experiment [2] and 97% in experiment [3].

In the case of `Cc1ccc2c(c1)c1c(n2C(=O)Cc2ccc(F)cc2)CCN(C)CC1` [Compound No. 285, 1-(3,9-dimethyl-2,3,4,5-tetrahydroazepino[4,5-b]indol-6(1H)-yl)-2-(4-fluorophenyl) ethanone], the inhibition at 1 µM is 75% in experiment [1], 89% in experiment [2] and 99% in experiment [3].

In the case of `Cc1ccc2c(c1)c1c(n2CCc2ccccc2)CCN(C)CC1` [Compound No. 62, 1,2,3,4,5,6-hexahydro-3,9-dimethyl-6-phenethylazepino[4,5-b]indole], the values for the inhibition at 1 µM in experiment [1], in experiment [2] and in experiment [3] were 98%, 12% and 101%, respectively.

`Cc1ccc(C(O)Cn2c3c(c4cc(Cl)ccc42)CCN(C)CC3)cn1` (stereo not drawn) [Compound No. 7, 2-(9-chloro-2,3,4,5-tetrahydro-3-methylazepino[4,5-b]indol-6(1H)-yl)-1-(6-methylpyridin-3-yl)ethanol]: the results for the inhibition at 1 µM in experiment [1], in experiment [2] and in experiment [3] were 101%, 69% and 64%, respectively.

With `CN1CCc2c(n(CC(C)(O)c3ccc(Cl)cc3)c3ccc(Cl)cc23)CC1` (stereo not drawn) [Compound No. 12, 1-(9-chloro-2,3,4,5-tetrahydro-3-methylazepino[4,5-b]indol-6(1H)-yl)-2-(4-chlorophenyl)propan-2-ol], the inhibition at 1 µM in experiment [1] was determined as 103%; in experiment [2], 68%; in experiment [3] it was 92%.

For `CN1CCc2c(n(CCc3cncc(Cl)c3)c3ccc(Cl)cc23)CC1` [Compound No. 10, 9-chloro-6-(2-(5-chloropyridin-3-yl)ethyl)-1,2,3,4,5,6-hexahydro-3-methylazepino[4,5-b]indole], the inhibition at 1 µM in experiment [1] turned out to be 101%; in experiment [2], 89%; in experiment [3] it was 92%.

For the compound `CN1CCc2c(n(CC(=O)N3CCNCC3)c3ccc(Cl)cc23)CC1` [Compound No. 72, 2-(9-chloro-2,3,4,5-tetrahydro-3-methylazepino[4,5-b]indol-6(1H)-yl)-1-(piperazin-1-yl)ethanone], the inhibition at 1 µM in experiment [1] stood at 7%; in experiment [2], 17%; in experiment [3], 53%.

On to `Cc1ccc2c(c1)c1c(n2/C=C/c2ccccc2)CCN(C)CC1` [Compound No. 229, (E)-3,9-dimethyl-6-styryl-1,2,3,4,5,6-hexahydroazepino[4,5-b]indole], for which the inhibition at 1 µM in experiment [1] is 103%; in experiment [2] it was 97%; in experiment [3] it was 98%.

With `Cc1ccc2c(c1)c1c(n2CC(=O)N2CCCCC2)CCN(C)CC1` [Compound No. 32, 2-(2,3,4,5-tetrahydro-3,9-dimethylazepino[4,5-b]indol-6(1H)-yl)-1-(piperidin-1-yl)ethanone], the inhibition at 1 µM in experiment [1] was determined as 22%; in experiment [2], 4%; in experiment [3] it was 48%.

Turning to `CN1CCc2c(n(CC(O)c3ccc(Cl)cc3)c3ccc(Cl)cc23)CC1` (stereo not drawn) [Compound No. 16, 2-(9-chloro-2,3,4,5-tetrahydro-3-methylazepino[4,5-b]indol-6(1H)-yl)-1-(4-chlorophenyl)ethanol], the inhibition at 1 µM in experiment [1] came to 99%; in experiment [2], 85%; in experiment [3] it was 92%.

Regarding `COc1ccc(C(O)Cn2c3c(c4cc(C)ccc42)CCN(C)CC3)cc1` (stereo not drawn) [Compound No. 48, 2-(2,3,4,5-tetrahydro-3,9-dimethylazepino[4,5-b]indol-6(1H)-yl)-1-(4-methoxyphenyl) ethanol], the inhibition at 1 µM in experiment [1] was 103%; in experiment [2], 95%; in experiment [3], 98%.

With `Cc1ccc2c(c1)c1c(n2CC(O)c2ccccc2F)CCN(C)CC1` (stereo not drawn) [Compound No. 41, 1-(2-fluorophenyl)-2-(2,3,4,5-tetrahydro-3,9-dimethylazepino[4,5-b]indol-6(1H)-yl)ethanol], the inhibition at 1 µM in experiment [1] amounted to 104%; in experiment [2], 75%; in experiment [3] it was 99%.

For `Cc1ccc2c(c1)c1c(n2/C=C/c2ccc(F)cc2)CCN(C)CC1` [Compound No. 39, 6-(4-fluorostyryl)-1,2,3,4,5,6-hexahydro-3,9-dimethylazepino[4,5-b]indole], the inhibition at 1 µM came out at 105% in experiment [1], 99% in experiment [2] and 97% in experiment [3].
